Laboratory results: ChEMBL document CHEMBL1122276, “6-Chloro-2,3,4,5-tetrahydro-3-methyl-1H-3-benzazepine: a potent and selective antagonist of alpha 2-adrenoceptors” (J Med Chem, 1983)

Legend:
Canis familiaris = species: Canis familiaris; assay: Effective concentration of 100% release of [3H]norepinephrine from electrically stimulated dog splenic arteries; assay type: functional, Canis lupus familiaris
Cavia porcellus [1] = species: Cavia porcellus; assay: Dissociation constant (KB) for competitive inhibition of BHR 920 induced depression of neurotransmission in isolated guinea pig atrium; assay type: functional; conditions: Cardiac atrium
Oryctolagus cuniculus = species: Oryctolagus cuniculus; assay: Ability to block the norepinephrine constrictor response in the rabbit ear artery in a competitive fashion; assay type: functional
Cavia porcellus [2] = species: Cavia porcellus; assay: Concentration-related inhibition of response to sympathetic nerve stimulation in isolated guinea pig atrium mediated by alpha-2 receptors; assay type: functional; conditions: Cardiac atrium

In the case of `CN1CCc2cccc(Cl)c2CC1.Cl`, the EC100 (Canis familiaris) is reported as 210 nM, the Kb (Cavia porcellus [1]) is reported as 17 nM and the Kb (Oryctolagus cuniculus) is reported as 900 nM.

With `C=CCN1CCc2nc(N)sc2CC1` [TALIPEXOLE] the EC50 (Cavia porcellus [2]) was 100 nM.
